USRE48461E1, “Modulation of androgen receptor expression” (Ionis Pharmaceuticals, Inc., priority 2012, dated 2021)

Tests used:
Format in all cases: cell-based, human
[1] = test system: PSA mRNA; test: PSA expression in C4-2B cells (Example 30); conditions: 48 hrs
Summary of the method: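 C4-2B cells were plated at 1,000 cells per well in complete medium, or at 2,000 cells per well in CSS medium with 1 nM DHT. ISIS 549148 served as the negative control. AR, PSA and TMPRSS2 RNA levels were measured after 48 hrs.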

[2] = test system: AR mRNA; test: AR mRNA levels in LMR20 cells (with/without DHT or R1881); conditions: with or without DHT/R1881
Experimental: (§1) LMR20 cells were plated at 1,500 cells per well in phenol red-free medium with CSS.

[3] = test system: VCaP cells; test: VCaP apoptosis (Caspase-Glo 3/7); conditions: complete medium, 72 hours; for Apoptosis (% untreated control): VCaP cells
Experimental: After a treatment period of 72 hours in complete medium, apoptosis of the cancer cells was measured with Caspase-Glo 3/7 assay (Promega). Results are presented in Tables 117 and 118 as percent apoptosis of the cells, relative to non-treated cells.

[4] = test system: TMPRSS2 mRNA; test: TMPRSS2 mRNA levels in LMR20 cells; conditions: with or without DHT/R1881
Experimental: as §1

[5] = test system: 22RV1 cells; test: 22RV1 cell proliferation (Example 32); conditions: 5 days; for Proliferation (% untreated control): 22RV1 cells, complete medium
Summary of the method: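 Cells were treated for 5 days in complete medium. Proliferation was then read with a tetrazolium (AQueous One) or ATP-luminescence (CellTiter-Glo) assay.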

[6] = test system: VCaP cells; test: VCaP cell proliferation; conditions: 5 days; for Proliferation (% untreated control): VCaP cells
Summary of the method: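 VCaP cells treated 5 days in complete medium or charcoal-stripped serum medium with 1 nM DHT; proliferation read by CellTiter 96 AQueous One or CellTiter-Glo.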

[7] = test system: PSA mRNA; test: PSA expression in 22RV1 cells; conditions: RNAiMax, 48 hrs
Summary of the method: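 In 22RV1 cells, full-length AR, AR-V7, PSA and TMPRSS2 RNA measured after 48 h compound incubation. Complete-medium format used 1,000 cells/well; CSS+DHT format used 2,000 cells/well cultured 16 h in CSS medium, with 1 nM DHT added after 4 h.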

[8] = test system: 22RV1 cells; test: 22RV1 cell proliferation with/without DHT (MTT); conditions: 5 days; for Percent inhibition of 22RV1 cell proliferation: RNAiMAX
Experimental: 22RV1cells were plated at 1,500 cells per well. […] Separate sets of cells, also treated with each of the antisense oligonucleotides, were treated with DHT added on day 1 at a final concentration of 1 nM. After a treatment period of 5 days, the proliferative ability of the cancer cells was measured using the standard MTT assay. Results are presented in Table 69 as percent inhibition of proliferation, relative to non-treated cells.

[9] = test system: AR mRNA; test: AR RNA expression in C4-2 cells (complete, CSS+DHT medium); conditions: 48 hrs; for Percent expression of AR: C4-2 cells, CSS + DHT medium
Experimental: Cells were plated at 1,000 cells per well. […] After an incubation period of 48 hrs, RNA levels of AR, PSA and TMPRSS2 were measured.
Cells were plated at 2,000 cells per well and cultured in CSS media with 1 nM DHT. […] After an incubation period of 48 hrs, RNA levels of AR, PSA and TMPRSS2 were measured.

TGATTTAATGGTTGCA [ISIS 569236] (cEt/MOE gapmer chemistry, further chemistry not given here) [targets intron 1]
Percent inhibition of PSA expression ([1]; CSS + DHT medium, 0.04 μM): 0%
Percent inhibition of PSA expression ([1]; CSS + DHT medium, 0.2 μM): 5%
Percent inhibition of PSA expression ([1]; CSS + DHT medium, 1 μM): 33%
Percent inhibition of PSA expression ([1]; CSS + DHT medium, 5.0 μM): 46%
Percent inhibition of PSA expression ([1]; complete medium, 0.04 μM): 30%
Percent inhibition of PSA expression ([1]; complete medium, 0.2 μM): 72%
Percent inhibition of PSA expression ([1]; complete medium, 1 μM): 81%
Percent inhibition of PSA expression ([1]; complete medium, 5.0 μM): 89%
AR mRNA levels in LMR20 cells [2]: reduced AR mRNA levels in LMR20 cells, treated with or without either AR agonist, in a dose dependent manner relative to the baseline
Apoptosis (% untreated control) ([3]; 1.34 nM): 176 % untreated control
Apoptosis (% untreated control) ([3]; 4.0 nM): 293 % untreated control
Apoptosis (% untreated control) ([3]; 13.4 nM): 402 % untreated control
Apoptosis (% untreated control) ([3]; 40 nM): 581 % untreated control
apoptosis of VCaP cells [3]: increased apoptosis of the cells in a dose dependent compared to the control
TMPRSS2 mRNA levels in LMR20 cells [4]: reduced PSA levels and TMPRSS2 more extensively than the LNA gapmer ISIS 554221 or MDV3100
Proliferation (% untreated control) ([5]; 1.34 nM): 92 % untreated control
Proliferation (% untreated control) ([5]; 4.0 nM): 53 % untreated control
Proliferation (% untreated control) ([5]; 13.4 nM): 20 % untreated control
Proliferation (% untreated control) ([5]; 40 nM): 7 % untreated control
proliferation of 22RV1 cells [5]: reduced proliferation of the cells in a dose dependent compared to the control
Proliferation (% untreated control) ([6]; CSS + DHT medium, 1.34 nM): 83 % untreated control
Proliferation (% untreated control) ([6]; CSS + DHT medium, 4.0 nM): 68 % untreated control
Proliferation (% untreated control) ([6]; CSS + DHT medium, 13.4 nM): 61 % untreated control
Proliferation (% untreated control) ([6]; CSS + DHT medium, 40 nM): 45 % untreated control
Proliferation (% untreated control) ([6]; complete medium, 1.34 nM): 98 % untreated control
Proliferation (% untreated control) ([6]; complete medium, 4.0 nM): 76 % untreated control
Proliferation (% untreated control) ([6]; complete medium, 13.4 nM): 68 % untreated control
Proliferation (% untreated control) ([6]; complete medium, 40 nM): 59 % untreated control
proliferation of VCaP cells ([6]; complete medium or CSS+1 nM DHT): reduced proliferation of the cells in a dose dependent compared to the control
Percent inhibition of PSA expression ([7]; CSS + DHT medium, 1.34 nM): 28%
Percent inhibition of PSA expression ([7]; CSS + DHT medium, 4.0 nM): 49%
Percent inhibition of PSA expression ([7]; CSS + DHT medium, 13.4 nM): 70%
Percent inhibition of PSA expression ([7]; complete medium, 1.34 nM): 0%
Percent inhibition of PSA expression ([7]; complete medium, 4.0 nM): 17%
Percent inhibition of PSA expression ([7]; complete medium, 13.4 nM): 25%
Percent inhibition of PSA expression ([7]; complete medium, 40 nM): 7%
Percent inhibition of 22RV1 cell proliferation ([8]; +DHT (1 nM), ASO 1.34 nM): 0%
Percent inhibition of 22RV1 cell proliferation ([8]; +DHT (1 nM), ASO 4.0 nM): 6%
Percent inhibition of 22RV1 cell proliferation ([8]; +DHT (1 nM), ASO 13.4 nM): 32%
Percent inhibition of 22RV1 cell proliferation ([8]; +DHT (1 nM), ASO 40.0 nM): 56%
22RV1 cell proliferation ([8]; with or without 1 nM DHT): significantly inhibited prostate cancer cell proliferation even in the presence of AR activator, DHT, compared to the control
Percent inhibition of 22RV1 cell proliferation ([8]; −DHT, ASO 1.34 nM): 0%
Percent inhibition of 22RV1 cell proliferation ([8]; −DHT, ASO 4.0 nM): 18%
Percent inhibition of 22RV1 cell proliferation ([8]; −DHT, ASO 13.4 nM): 47%
Percent inhibition of 22RV1 cell proliferation ([8]; −DHT, ASO 40.0 nM): 64%
Percent expression of AR ([9]; 0.04 μM): 89%
Percent expression of AR ([9]; 0.2 μM): 82%
Percent expression of AR ([9]; 1 μM): 52%
Percent expression of AR ([9]; 5.0 μM): 23%
Percent expression of AR in C4-2 cells cultured in complete medium ([9]; 0.04 μM): 72%
Percent expression of AR in C4-2 cells cultured in complete medium ([9]; 0.2 μM): 27%
Percent expression of AR in C4-2 cells cultured in complete medium ([9]; 1 μM): 11%
Percent expression of AR in C4-2 cells cultured in complete medium ([9]; 5.0 μM): 9%
